Where two headings read alike, the source gives them in different places. Some results are limits rather than exact numbers.

One assay concerns the target T1, HCV NS5B (Hepatitis C virus genotype 1b, UniProt Q9WMX2).
T1 construct: The protein was expressed with an 18 amino acid C-terminal truncation to enhance the solubility; made in house; host or cells: E. coli BL21(DE3)
As to the kind of experiment: HCV NS5B RdRp enzyme assay (preincubation protocol). The format is biochemical. Conditions: HCV NS5B RdRp genotype 1b. The procedure:
HCV NS5B RdRp cloning, expression, and purification. The cDNA encoding the NS5B protein of HCV, genotype 1b, was cloned into the pET21a expression vector. The protein was expressed with an 18 amino acid C-terminal truncation to enhance the solubility. The E. coli competent cell line BL21(DE3) was used for expression of the protein. Cultures were grown at 37° C. for ˜4 hours until the cultures reached an optical density of 2.0 at 600 nm. The cultures were cooled to 20° C. and induced with 1 mM IPTG. Fresh ampicillin was added to a final concentration of 50 μg/ml and the cells were grown overnight at 20° C.
Cell pellets (3 L) were lysed for purification to yield 15-24 mgs of purified NS5B. The lysis buffer consisted of 20 mM Tris-HCl, pH 7.4, 500 mM NaCl, 0.5% triton X-100, 1 mM DTT, 1 mM EDTA, 20% glycerol, 0.5 mg/ml lysozyme, 10 mM MgCl2, 15 ug/ml deoxyribonuclease I, and Complete TM protease inhibitor tablets (Roche). After addition of the lysis buffer, frozen cell pellets were resuspended using a tissue homogenizer. To reduce the viscosity of the sample, aliquots of the lysate were sonicated on ice using a microtip attached to a Branson sonicator. The sonicated lysate was centrifuged at 100,000×g for 1 hr at 4° C. and filtered through a 0.2 μm filter unit (Corning).
The protein was purified using three sequential chromatography steps: Heparin sepharose CL-6B, polyU sepharose 4B, and Hitrap SP sepharose (Pharmacia). The chromatography buffers were identical to the lysis buffer but contained no lysozyme, deoxyribonuclease I, MgCl2 or protease inhibitor and the NaCl concentration of the buffer was adjusted according to the requirements for charging the protein onto the column. Each column was eluted with a NaCl gradient which varied in length from 5-50 column volumes depending on the column type. After the final chromatography step, the resulting purity of the enzyme is >90% based on SDS-PAGE analysis. The enzyme was aliquoted and stored at −80° C.
Standard HCV NS5B RdRp enzyme assay. HCV RdRp genotype 1b assays were run in a final volume of 60 μl in 96 well plates (Costar 3912 H. The assay buffer is composed of 20 mM Hepes, pH 7.5, 2.5 mM KCl, 2.5 mM MgCl2, 1 mM DTT, 1.6 U RNAse inhibitor (Promega N2515), 0.1 mg/ml BSA (Promega R3961), and 2% glycerol. All compounds were serially diluted (3-fold) in DMSO and diluted further in water such that the final concentration of DMSO in the assay was 2%. HCV RdRp genotype 1b enzyme was used at a final concentration of 28 nM. A polyA template was used at 6 nM, and a biotinylated oligo-dT12 primer was used at 180 nM final concentration. Template was obtained commercially (Amersham 27-4110). Biotinylated primer was prepared by Sigma Genosys. 3H-UTP was used at 0.6 μCi (0.29 μM total UTP). Reactions were initiated by the addition of enzyme, incubated at 30° C. for 60 min, and stopped by adding 25 μl of 50 mM EDTA containing SPA beads (4 μg/μl, Amersham RPNQ 0007 H. Plates were read on a Packard Top Count NXT after >1 hr incubation at room temperature.
Modified HCV NS5B RdRp enzyme assay. A modified enzyme assay was performed essentially as described for the standard enzyme assay except for the following: The biotinylated oligo dT12 primer was precaptured on streptavidin-coated SPA beads by mixing primer and beads in assay buffer and incubating at room temperature for one hour. Unbound primer was removed after centrifugation. The primer-bound beads were resuspended in 20 mM Hepes buffer, pH 7.5 and used in the assay at final concentrations of 20 nM primer and 0.67 μg/μl beads. Order of addition in the assay: enzyme (14 nM) was added to diluted compound followed by the addition of a mixture of template (0.2 nM), 3H-UTP (0.6 μCi, 0.29 μM), and primer-bound beads, to initiate the reaction; concentrations given are final. Reactions were allowed to proceed for 4 hours at 30° C.
IC50 values for compounds were determined using seven different [I]. […]

Another assay relates to HCV replicon cells. As to the kind of experiment: HCV replicon FRET assay. Format: cell-based. From the text:
FRET Assay Preparation. To perform the HCV FRET screening assay, 96-well cell culture plates were used. The FRET peptide (Anaspec, Inc.) (Taliani et al., Anal Biochem. 1996, 240, 60-67) contains a fluorescence donor, EDANS, near one end of the peptide and an acceptor, DABCYL, near the other end. The fluorescence of the peptide is quenched by […] resonance energy transfer (RET) between the donor and the acceptor, but as the NS3 protease cleaves the peptide the products are released from RET quenching and the fluorescence of the donor becomes apparent. The assay reagent was made as follows: 5× cell Luciferase cell culture lysis reagent from Promega (#E153A) diluted to 1× with dH2O, NaCl added to 150 mM final, the FRET peptide diluted to 20 μM final from a 2 mM stock.
To prepare plates, HCV replicon cells, with or without a Renilla luciferase reporter gene, were trypsinized and placed into each well of a 96-well plate with titrated test compounds added in columns 3 through 12; columns 1 and 2 contained a control compound (HCV protease inhibitor), and the bottom row contained cells without compound. The plates were then placed in a CO2 incubator at 37° C.
Assays. Subsequent to addition of the test compounds described above (FRET Assay Preparation), at various times the plate was removed and Alamar blue solution (Trek Diagnostics, #00-100) was added per well as a measure of cellular toxicity. After reading in a Cytoflour 4000 instrument (PE Biosystems), plates were rinsed with PBS and then used for FRET assay by the addition of 30 ul of the FRET peptide assay reagent described above (FRET Assay Preparation) per well. The plate was then placed into the Cytoflour 4000 instrument which had been set to 340 excite/490 emission, automatic mode for 20 cycles and the plate read in a kinetic mode. Typically, the signal to noise using an endpoint analysis after the reads was at least three-fold. Alternatively, after Alamar blue reading, plates were rinsed with PBS, 50 ul of DMEM (high glucose) without phenol red was added and plates were then used for luciferase assay using the Promega Dual-Glo Luciferase Assay System.
Compound analysis was determined by quantification of the relative HCV replicon inhibition and the relative cytotoxicity values. To calculate cytoxicity values, the average Alamar Blue fluorescence signals from the control wells were set as 100% non-toxic. The individual signals in each of the compound test wells were then divided by the average control signal and multiplied by 100% to determine […]. To calculate the HCV replicon inhibition values, an average background value was obtained from the two wells containing the highest amount of HCV protease inhibitor at the end of the assay period. These numbers were similar to those obtained from naïve Huh-7 cells.
The background numbers were then subtracted from the average signal obtained from the control wells and this number was used as 100% activity. The individual signals in each of the compound test wells were then divided by the averaged control values after background subtraction and multiplied by 100% to determine percent activity. EC50 values for a protease inhibitor titration were calculated as the concentration which caused a 50% reduction in FRET or luciferase activity. The two numbers generated for the compound plate, percent cytoxicity and percent activity were used to determine compounds of interest for further analysis.

T1 sequence (Q9WMX2 2420-2992): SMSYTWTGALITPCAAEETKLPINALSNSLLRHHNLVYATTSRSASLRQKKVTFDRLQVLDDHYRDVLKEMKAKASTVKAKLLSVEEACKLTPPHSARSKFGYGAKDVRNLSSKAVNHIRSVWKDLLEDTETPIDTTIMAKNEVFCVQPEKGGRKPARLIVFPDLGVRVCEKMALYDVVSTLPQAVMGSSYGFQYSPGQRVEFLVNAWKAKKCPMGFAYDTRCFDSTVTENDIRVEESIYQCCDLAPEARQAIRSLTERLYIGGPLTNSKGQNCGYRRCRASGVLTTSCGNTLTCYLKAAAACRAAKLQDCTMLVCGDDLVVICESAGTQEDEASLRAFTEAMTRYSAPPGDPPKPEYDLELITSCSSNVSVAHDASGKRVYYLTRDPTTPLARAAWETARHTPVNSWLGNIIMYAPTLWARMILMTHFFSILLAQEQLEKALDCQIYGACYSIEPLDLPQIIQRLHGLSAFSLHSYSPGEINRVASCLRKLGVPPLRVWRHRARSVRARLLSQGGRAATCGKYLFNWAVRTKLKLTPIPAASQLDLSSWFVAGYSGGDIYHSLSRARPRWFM

Molecule `COc1ccc2c(c1)CC(c1ncc(CCC(=O)N3CCOCC3)o1)Cn1c-2c(C2CCCCC2)c2ccc(C(=O)O)cc21` (racemic) [Example 50, 13-Cyclohexyl-3-methoxy-6-(5-(3-(4-morpholinyl)-3-oxopropyl)-1,3-oxazol-2-yl)-6,7-dihydro-5H-indolo[2,1-a][2]benzazepine-10-carboxylic acid] yielded an IC50 against HCV NS5B of 1 to 500 nM. The same molecule displayed a concentration for a half-maximal effect (EC50) in the assay with HCV replicon cells (Hepatitis C virus) of 1 to 500 nM.

In turn, `COc1ccc2c(c1)CC(c1ncc(CCC(=O)N3CCOCC3)o1)Cn1c-2c(C2CCCCC2)c2ccc(C(=O)O)cc21` (single isomer, unassigned) [Example 51, 13-Cyclohexyl-3-methoxy-6-(5-(3-(4-morpholinyl)-3-oxopropyl)-1,3-oxazol-2-yl)-6,7-dihydro-5H-indolo[2,1-a][2]benzazepine-10-carboxylic acid] had an IC50 on HCV NS5B of 1 to 500 nM. Moreover, the EC50 in the assay on HCV replicon cells is more than 500 nM.

`COc1ccc2c(c1)CC(c1ncc(CCC(=O)N3CCOCC3)o1)Cn1c-2c(C2CCCCC2)c2ccc(C(=O)O)cc21` (single isomer, unassigned) [Example 52, 13-Cyclohexyl-3-methoxy-6-(5-(3-(4-morpholinyl)-3-oxopropyl)-1,3-oxazol-2-yl)-6,7-dihydro-5H-indolo[2,1-a][2]benzazepine-10-carboxylic acid] registered an IC50 against HCV NS5B of 1 to 500 nM. The molecule also returned an EC50 in the assay with HCV replicon cells of 1 to 500 nM.

Take `COc1ccc2c(c1)CC(c1ncc(CCC(=O)N3CCOCC3)o1)Cn1c-2c(C2CCCCC2)c2ccc(C(=O)NS(=O)(=O)N(C)C)cc21` (single isomer, unassigned) [Example 53, 13-Cyclohexyl-N-((dimethylamino)sulfonyl)-3-methoxy-6-(5-(3-(4-morpholinyl)-3-oxopropyl)-1,3-oxazol-2-yl)-6,7-dihydro-5H-indolo[2,1-a][2]benzazepine-10-carboxamide]: the IC50 against HCV NS5B was in the range of 1 to 500 nM. The molecule further had an EC50 in the assay with HCV replicon cells (Hepatitis C virus) of 1 to 500 nM.

`COc1ccc2c(c1)C[C@H](c1ncc(CCC(=O)N3CCOCC3)o1)Cn1c-2c(C2CCCCC2)c2ccc(C(=O)NS(=O)(=O)N(C)C)cc21` (single isomer, unassigned) [Example 54, 13-cyclohexyl-N-((dimethylamino)sulfonyl)-3-methoxy-6-(5-(3-(4-morpholinyl)-3-oxopropyl)-1,3-oxazol-2-yl)-6,7-dihydro-5H-indolo[2,1-a][2]benzazepine-10-carboxamide] returned an IC50 on HCV NS5B of 1 to 500 nM. This molecule had an EC50 in the assay with HCV replicon cells (Hepatitis C virus) of 1 to 500 nM.

`COC(=O)c1ccc2c(C3CCCCC3)c3n(c2c1)CC(c1nnn[nH]1)=Cc1ccccc1-3` [Example 1, 13-cyclohexyl-6-(1H-tetrazol-5-yl)-7H-indolo[2,1-a][2]benzazepine-10-carboxylic acid, methyl ester] came in with an IC50 against HCV NS5B of more than 500 nM. For the same molecule, in the assay with HCV replicon cells (Hepatitis C virus), the EC50 is more than 500 nM.

For the molecule `CCn1nnc(C2=Cn3c(c(C4CCCCC4)c4ccc(C(=O)O)cc43)-c3ccccc3C2)n1` [Example 2, 13-cyclohexyl-6-(2-ethyl-2H-tetrazol-5-yl)-5H-indolo[2,1-a][2]benzazepine-10-carboxylic acid], the IC50 against HCV NS5B lay in the range of 1 to 500 nM. Further, in the assay on HCV replicon cells (Hepatitis C virus), the EC50 is more than 500 nM.

Turning to `CCn1nnc(C2=Cc3ccccc3-c3c(C4CCCCC4)c4ccc(C(=O)O)cc4n3C2)n1` [Example 3, 13-cyclohexyl-6-(2-ethyl-2H-tetrazol-5-yl)-7H-indolo[2,1-a][2]benzazepine-10-carboxylic acid], the IC50 at HCV NS5B lay in the range of 1 to 500 nM. Also, the EC50 in the assay with HCV replicon cells (Hepatitis C virus) was more than 500 nM.

On to `CCn1nnc(C2=Cc3ccccc3-c3c(C4CCCCC4)c4ccc(C(=O)NS(=O)(=O)N(C)C)cc4n3C2)n1` [Example 4], for which the IC50 against HCV NS5B lay within 1 to 500 nM. Further, the EC50 in the assay on HCV replicon cells (Hepatitis C virus) is more than 500 nM.

As for `O=C(O)c1ccc2c(C3CCCCC3)c3n(c2c1)CC(c1nnn(CCO)n1)=Cc1ccccc1-3` [Example 5, 13-cyclohexyl-6-[2-(2-hydroxyethyl)-2H-tetrazol-5-yl]-7H-indolo[2,1-a][2]benzazepine-10-carboxylic acid], at HCV NS5B, the IC50 is more than 500 nM. Further, the concentration for a half-maximal effect (EC50) with HCV replicon cells (Hepatitis C virus) was more than 500 nM.

In turn, `O=C(O)c1ccc2c(C3CCCCC3)c3n(c2c1)CC(c1nnn(CC2CC2)n1)=Cc1ccccc1-3` [Example 6, 13-cyclohexyl-6-[2-(cyclopropylmethyl)-2H-tetrazol-5-yl]-7H-indolo[2,1-a][2]benzazepine-10-carboxylic acid] yielded an IC50 at HCV NS5B of more than 500 nM. In the assay with HCV replicon cells (Hepatitis C virus), this molecule yielded an EC50 of more than 500 nM.

Consider `O=C(O)c1ccc2c(C3CCCCC3)c3n(c2c1)C=C(c1nnn(CC2CC2)n1)Cc1ccccc1-3` [Example 7, 13-cyclohexyl-6-[2-(cyclopropylmethyl)-2H-tetrazol-5-yl]-5H-indolo[2,1-a][2]benzazepine-10-carboxylic acid], for which, at HCV NS5B, the concentration for half-maximal inhibition (IC50) is more than 500 nM. In the assay with HCV replicon cells (Hepatitis C virus), this molecule showed an EC50 of more than 500 nM.

`COC(=O)c1ccc2c(C3CCCCC3)c3n(c2c1)CC(c1ncc(CCC(=O)N2CCOCC2)o1)Cc1cc(OC)ccc1-3` (centres unmarked) [Example 49, Methyl 13-cyclohexyl-3-methoxy-6-(5-(3-(4-morpholinyl)-3-oxopropyl)-1,3-oxazol-2-yl)-6,7-dihydro-5H-indolo[2,1-a][2]benzazepine-10-carboxylate] came in with an IC50 against HCV NS5B of more than 500 nM.

In the case of `COC(=O)c1ccc2c(C3CCCCC3)c3n(c2c1)CC(c1ncco1)=Cc1cc(OC)ccc1-3` [Example 55, Methyl 13-cyclohexyl-3-methoxy-6-(1,3-oxazol-2-yl)-7H-indolo[2,1-a][2]benzazepine-10-carboxylate], the concentration for half-maximal inhibition (IC50) on HCV NS5B is more than 500 nM.
